Source: ChEMBL document CHEMBL3407445, “Benzofuran-derived benzylpyridinium bromides as potent acetylcholinesterase inhibitors” (Eur J Med Chem, 2015)

What follows are molecules tested against Acetylcholinesterase (Electrophorus electricus) (UniProt O42275) (assay: Potency index, ratio of IC50 for donepezil to IC50 for compound against electric eel AChE using acetylthiocholine substrate by Ellman's reagent based method).
Sequence of Acetylcholinesterase (Electrophorus electricus) (O42275 24-633 limits assumed): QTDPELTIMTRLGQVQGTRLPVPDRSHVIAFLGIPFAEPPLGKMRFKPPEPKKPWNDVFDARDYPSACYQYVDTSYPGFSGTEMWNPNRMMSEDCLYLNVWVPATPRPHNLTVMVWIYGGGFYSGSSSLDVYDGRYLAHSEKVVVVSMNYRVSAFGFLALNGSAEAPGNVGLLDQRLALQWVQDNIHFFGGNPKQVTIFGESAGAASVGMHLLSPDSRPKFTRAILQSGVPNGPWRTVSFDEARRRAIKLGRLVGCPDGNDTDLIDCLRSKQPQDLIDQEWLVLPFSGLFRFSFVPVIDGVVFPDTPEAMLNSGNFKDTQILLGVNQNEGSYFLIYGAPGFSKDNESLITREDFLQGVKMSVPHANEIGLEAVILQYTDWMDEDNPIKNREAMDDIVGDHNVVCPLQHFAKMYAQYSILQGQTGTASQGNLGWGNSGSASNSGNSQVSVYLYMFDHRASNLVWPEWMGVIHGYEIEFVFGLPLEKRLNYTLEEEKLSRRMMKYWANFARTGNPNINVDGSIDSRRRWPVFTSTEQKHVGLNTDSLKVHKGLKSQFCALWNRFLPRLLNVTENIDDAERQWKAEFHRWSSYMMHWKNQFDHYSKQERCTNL

`Cc1cc(C)cc(C[n+]2ccc(-c3cc4ccccc4o3)cc2)c1` was tested, and the Ratio IC50 was 7.

The molecules below were run against Acetylcholinesterase (Electrophorus electricus, UniProt O42275) (assay: Inhibition of electric eel AChE using acetylthiocholine substrate by Ellman's reagent based method).
Sequence of Acetylcholinesterase (O42275 whole entry): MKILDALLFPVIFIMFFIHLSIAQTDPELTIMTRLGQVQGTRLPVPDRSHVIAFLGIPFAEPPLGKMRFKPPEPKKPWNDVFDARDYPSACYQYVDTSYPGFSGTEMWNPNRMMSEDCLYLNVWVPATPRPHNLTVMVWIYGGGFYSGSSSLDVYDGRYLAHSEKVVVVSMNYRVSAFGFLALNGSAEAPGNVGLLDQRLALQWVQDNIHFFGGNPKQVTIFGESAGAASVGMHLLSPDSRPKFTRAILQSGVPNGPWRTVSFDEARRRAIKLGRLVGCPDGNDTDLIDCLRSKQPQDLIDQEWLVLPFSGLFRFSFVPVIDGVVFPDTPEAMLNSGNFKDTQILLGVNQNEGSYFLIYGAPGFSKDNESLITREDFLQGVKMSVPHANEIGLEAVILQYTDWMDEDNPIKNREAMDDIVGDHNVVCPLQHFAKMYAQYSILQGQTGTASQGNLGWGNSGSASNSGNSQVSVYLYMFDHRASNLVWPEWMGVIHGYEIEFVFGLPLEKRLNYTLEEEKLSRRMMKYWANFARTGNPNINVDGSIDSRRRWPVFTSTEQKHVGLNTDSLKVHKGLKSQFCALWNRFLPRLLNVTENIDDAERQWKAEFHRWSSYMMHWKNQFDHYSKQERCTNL

`COc1cccc2cc(-c3cc[n+](Cc4ccccc4)cc3)oc12` and `COc1cccc2cc(-c3cc[n+](Cc4cccc(Br)c4)cc3)oc12` are within 1.5-fold of each other in IC50: 26.5 nM for the first, 22.4 nM for the second.

`Cc1ccccc1C[n+]1ccc(-c2cc3ccccc3o2)cc1` and `O=[N+]([O-])c1ccccc1C[n+]1ccc(-c2cc3ccccc3o2)cc1` are within 1.5-fold of each other in IC50: 6.8 nM for the first, 4.9 nM for the second.

Compared with `Brc1ccc(C[n+]2ccc(-c3cc4ccccc4o3)cc2)cc1`, `O=[N+]([O-])c1ccc(C[n+]2ccc(-c3cc4ccccc4o3)cc2)cc1` is 2.8-fold lower in IC50: 16 nM for the first, 5.8 nM for the second. The second is the more potent here.

Compared with `COc1cccc2cc(-c3cc[n+](Cc4ccc([N+](=O)[O-])cc4)cc3)oc12`, `COc1cccc2cc(-c3cc[n+](Cc4ccc(Br)cc4)cc3)oc12` is 2.8-fold higher in IC50: 10.6 nM for the first, 29.5 nM for the second.

Compared with `Fc1ccc(C[n+]2ccc(-c3cc4cc(Br)ccc4o3)cc2)cc1`, `Brc1ccc(C[n+]2ccc(-c3cc4cc(Br)ccc4o3)cc2)cc1` is 3.6-fold higher in IC50: 8.7 nM for the first, 31.5 nM for the second. The first is the more potent here.

`Fc1cccc(C[n+]2ccc(-c3cc4cc(Br)ccc4o3)cc2)c1` and `Brc1ccc2oc(-c3cc[n+](Cc4ccccc4)cc3)cc2c1` are within 1.5-fold of each other in IC50: 9.6 nM for the first, 13.5 nM for the second.

Compared with `Cc1cc(C)cc(C[n+]2ccc(-c3cc4ccccc4o3)cc2)c1`, `COc1cccc2cc(-c3cc[n+](Cc4cccc(F)c4)cc3)oc12` is 4.6-fold higher in IC50: 4.1 nM for the first, 18.9 nM for the second. The first is the more potent here.

Work on `O=[N+]([O-])c1ccc(C[n+]2ccc(-c3cc4cc(Br)ccc4o3)cc2)cc1` yielded an IC50 of 8.1 nM.
